Results published in ChEMBL document CHEMBL1154703, “Poly-N-methylated amyloid beta-peptide (Abeta) C-terminal fragments reduce Abeta toxicity in vitro and in Drosophila melanogaster” (J Med Chem, 2009).
Activity calls are given as the source filed them. The calls are words filed in the database; no cut-off is given here. Non-standard residues stand in square brackets, D forms with d. Residues, ends and D or L forms follow the SMILES beside them. Met(O2) = CS(=O)(=O)CC[C@H](N)C(=O)O; NMeI = CC[C@H](C)[C@H](NC)C(=O)O; NMeL = CN[C@@H](CC(C)C)C(=O)O; NMeV = CN[C@H](C(=O)O)C(C)C; Sar = CNCC(=O)O

Experiments:
[1] = Reduction of beta-sheet formation of Abeta (1-40) at 100 uM during 4 to 5 hrs incubation by CD spectroscopy
[2] = Inhibition of fibril formation of Abeta (1-40) assessed as fibril levels at 1:10 molar ratio of Abeta and ligand after 72 hrs by transmission electron microscopy relative to untreated control; design: scale not given: the % may be the effect or the level left
[3] = Inhibition of Abeta (1-42) assessed as blockade of amyloid-like aggregates at 100 uM by Congo red binding assay
[4] = Reduction of beta-sheet formation of Abeta (1-40) at 1:1 molar ratio of Abeta and ligand during 5 hrs incubation by CD spectroscopy
PC-12 = experiment: Cytoprotection against Abeta (1-42)-induced toxicity in rat PC12 cells at 10 uM after 4 hrs by MTT assay; assay type: functional, cell-based
[5] = Reduction of beta-sheet formation of Abeta (1-42) at 100 uM during 3 hrs incubation by CD spectroscopy
[6] = Effect on of Abeta (1-40) assessed as structure content at 5 hrs by CD spectroscopy
[7] = Inhibition of Abeta (1-40) assessed as blockade of amyloid-like aggregates at 100 uM by Congo red binding assay
[8] = Reduction of beta-sheet formation of Abeta (1-40) at 100 uM during 5 hrs incubation by CD spectroscopy
[9] = Inhibition of fibril formation of Abeta (1-40) assessed as change in fibril morphology at 100 uM by atomic force microscopy relative to untreated control
Drosophila melanogaster [10] = experiment: Effect on life span in wild type Drosophila melanogaster at 300 uM dosed from embryonic stage and throughout adult life; assay type: functional, organism-based
[11] = Inhibition of fibril formation of Abeta (1-40) assessed as fibril levels at 1:5 molar ratio of Abeta and ligand after 72 hrs by transmission electron microscopy relative to untreated control; design: scale not given: the % may be the effect or the level left
[12] = Effect on of Abeta (1-40) assessed as unordered structure content after 5 hrs by CD spectroscopy
Drosophila melanogaster [13] = experiment: Improvement in locomotor activity in transgenic Drosophila melanogaster expressing human Abeta (1-42) at 300 uM dosed from embryonic stage and throughout adult life by climbing assay; assay type: functional, organism-based
[14] = Reduction of beta-sheet formation of Abeta (1-42) at 100 uM during 4 hrs incubation by CD spectroscopy
[15] = Effect on of Abeta (1-42) assessed as unordered structure content after 5 hrs by CD spectroscopy
[16] = Inhibition of fibril formation of Abeta (1-40) assessed as change in fibril levels at 100 uM by atomic force microscopy relative to untreated control
[17] = Inhibition of fibril formation of Abeta (1-40) assessed as fibril levels at 1:1 molar ratio of Abeta and ligand after 72 hrs by transmission electron microscopy relative to untreated control; design: scale not given: the % may be the effect or the level left
[18] = Reduction of beta-sheet formation of Abeta (1-40) at 1:1 molar ratio of Abeta and ligand during 4 hrs incubation by CD spectroscopy
Drosophila melanogaster [19] = experiment: Prolongation of life span in transgenic Drosophila melanogaster expressing human Abeta (1-42) at 300 uM dosed from embryonic stage and throughout adult life; assay type: functional, organism-based

SMILES | Activity [1] | Activity [2] [%] | Activity [3] | Activity (PC-12) | Activity [5] | Activity [6] [%] | Activity [7] | Activity [11] [%] | further results
CC[C@H](C)[C@@H](C(=O)NCC(=O)N(C)[C@@H](CC(C)C)C(=O)N[C@@H](CCSC)C(=O)N(C)[C@H](C(=O)NCC(N)=O)C(C)C)N(C)C(C)=O (Ac-[NMeI]G[NMeL]M[NMeV]G-NH2) | Active | 50 | inactive | Active | Active | 25 | inactive | – | Activity [4]: inactive
CC[C@H](C)[C@@H](C(=O)N(C)CC(=O)N(C)[C@@H](CC(C)C)C(=O)N[C@@H](CCSC)C(=O)N(C)[C@H](C(=O)N(C)CC(N)=O)C(C)C)N(C)C(C)=O (Ac-[NMeI][Sar][NMeL]M[NMeV][Sar]-NH2) | – | 0 | Active | Active | – | 25 | Active | 0 | Activity [8]: Active; Activity [9]: Active; Activity (Drosophila melanogaster [10]): inactive; Activity [12]: 55%; Activity (Drosophila melanogaster [13]): Active; Activity [14]: Active; Activity [15]: > 50%; Activity [16]: Active; Activity [17]: 50%; Activity [18]: Active; Activity (Drosophila melanogaster [19]): Active
CC[C@H](C)[C@H](NC(C)=O)C(=O)NCC(=O)N[C@@H](CC(C)C)C(=O)N[C@@H](CCSC)C(=O)N[C@H](C(=O)NCC(N)=O)C(C)C (Ac-IGLMVG-NH2) | Active | 75 | inactive | inactive | Active | 25 | inactive | – | –
CC(=O)N(C)[C@@H](C)C(=O)N(C)[C@@H](C)C(=O)N(C)[C@@H](C)C(=O)N(C)[C@@H](C)C(=O)N(C)[C@@H](C)C(N)=O | – | – | – | – | – | – | – | 75 | –
CC[C@H](C)[C@H](NC(C)=O)C(=O)N(C)CC(=O)N[C@@H](CC(C)C)C(=O)N[C@@H](CCSC)C(=O)N[C@H](C(=O)N(C)CC(N)=O)C(C)C (Ac-I[Sar]LMV[Sar]-NH2) | Active | 75 | inactive | Active | Active | – | inactive | – | –
CC[C@H](C)[C@@H](C(=O)N(C)CC(=O)N(C)[C@@H](CC(C)C)C(=O)N[C@@H](CCS(C)(=O)=O)C(=O)N(C)[C@H](C(=O)N(C)CC(N)=O)C(C)C)N(C)C(C)=O (Ac-[NMeI][Sar][NMeL][Met(O2)][NMeV][Sar]-NH2) | – | – | – | – | – | – | – | 50 | –
